Source: publication PMC7954447 (Science Advances, 2021)

Biological target: human α7 nicotinic ACh receptor (nAChR) (Homo sapiens, UniProt P36544)
Assay type: cell-based

human α7 nicotinic ACh receptor (nAChR), sequence (P36544 23-502): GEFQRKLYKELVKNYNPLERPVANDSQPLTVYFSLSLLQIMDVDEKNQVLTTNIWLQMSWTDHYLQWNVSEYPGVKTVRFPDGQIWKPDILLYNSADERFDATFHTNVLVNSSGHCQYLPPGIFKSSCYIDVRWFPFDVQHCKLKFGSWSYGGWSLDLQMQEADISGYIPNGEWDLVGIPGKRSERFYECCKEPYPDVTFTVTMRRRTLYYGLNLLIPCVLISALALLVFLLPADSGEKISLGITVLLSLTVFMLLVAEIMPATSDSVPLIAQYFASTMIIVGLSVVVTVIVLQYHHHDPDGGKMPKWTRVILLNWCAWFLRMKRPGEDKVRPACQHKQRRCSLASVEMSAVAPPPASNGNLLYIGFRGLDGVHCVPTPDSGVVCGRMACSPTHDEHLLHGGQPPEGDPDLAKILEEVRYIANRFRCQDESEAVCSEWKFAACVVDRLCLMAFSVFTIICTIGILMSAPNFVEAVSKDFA

## Conazolium A [compound 1]
  IC50: 24.4 µM
